According to patent publication US8614236B2 (University of Washington, priority 2006, dated 2013):

How the values were obtained:
[1] = system: Beagle dogs; experiment: Dog study: plasma hormones, electrolytes and renal function; assay type: in vivo; conditions: for plasma renin activity: both acetazolamide protocols (iv, po)
Procedure: A total of 30 experiments were performed on six female Beagle dogs (body wt 14.3±0.3 kg). The dogs were kept under highly standardized conditions and received a standardized diet five days before the experiments. The preparation and catheterization of the conscious dog were performed according to former experiments as in Höhne C., et al., J Appl Physiol (2004), which is hereby incorporated by reference in its entirety. To permit spontaneous breathing through a low resistance circuit, a face mask was attached, which enclosed the dog's snout in a leak proof fashion. This custom made mask is equipped with a 2.5 cm ID connector to connect it to a ventilator set to CPAP mode (3 4 cmH20) (Servo900C; Siemens-Elema, Erlangen/Germany).
Six dogs were studied in five different protocols in randomized order:
4) Benzolamide intravenously: Bolus (2 mg/kg), followed by a continuous infusion of 2 mg·kg^−1·h^−1, a dosage which inhibits only renal and vascular endothelial extracellular CA, without affecting red cell CA as in Travis D. M., et al. J Pharmacol Exp Ther (1964), which is hereby incorporated by reference in its entirety. 5) Ethoxzolamide (Sigma-Aldrich, Steinheim/Germany) intravenously: Bolus ethoxzolamide (1 mg/kg), followed by a continuous infusion of 1 mg·kg^−1·h^−1.
In control experiments, the dogs breathed room air (21% O2, 79% N2; normoxia) for one hour, followed by breathing a gas mixture containing 10% O2 and 90% N2 for two hours (hypoxia). The time course was the same for the CA inhibitor experiments, but F1O2 was reduced to 0.09 during the hypoxia period to match the arterial and alveolar PO2 of the control dogs, which otherwise would have been higher on 10% O2 as a result of the known ventilatory stimulant effect of all CA inhibitors. See Höhne C., et al., J Appl Physiol 97:515-521 (2004), which is hereby incorporated by reference in its entirety. The hemodynamic measurements (arterial blood pressure, heart rate, central venous pressure, pulmonary artery pressure, pulmonary capillary wedge pressure), minute ventilation, renal function data, time points for blood samples for blood gases, actual bicarbonate, base excess, plasma electrolytes and hormones, measurements of plasma and urinary values were according to former studies. See Höhne C., et al., J Appl Physiol 90:1842-1848 (2001), which is hereby incorporated by reference in its entirety.
Values are given as means±SEM (n=6). For intra-group comparisons a general linear model of analysis of variance (GLM-ANOVA) for repeated measures was applied (NCSS97/PASS 2000, Saugus/MA, USA). Post-hoc testing of means was performed with Student's t-test. Level of significance for error of first order was adjusted according to Holm's procedure. Statistical significance was assumed at p<0.05.

[2] = system: PASMCs; experiment: Intracellular pH (pHi) in PASMCs (BCECF-AM); assay type: cell-based, rat; conditions: for basal pHi, Baseline: before the compound
Procedure: The method for obtaining single PASMCs has been described previously in Shimoda L. A., et al., Am J Physiol 274: 842-853 (1998), which is hereby incorporated by reference in its entirety. Intrapulmonary arteries (200-600 μm o.d.) were isolated from male Wistar rats (250-350 g) and cleaned of connective tissue. After the lumen was gently rubbed with a cotton swab to remove the endothelial cells, the arteries were allowed to recover for 30 minutes in cold (4° C.) HBSS containing (in mM): 130 NaCl, 5 KCl, 1.2 MgCl2, 1.5 CaCl2, 10 N-[2-hydroxyethyl]piperazine-N′-[2-ethanesulfonic acid] (HEPES) and 10 glucose, with pH adjusted to 7.2 with 5 M NaOH, followed by 20 minutes in reduced-Ca^2+ (20 μM CaCl2) HBSS at room temperature. The tissue was enzymatically digested in reduced-Ca^2+ HBSS containing collagenase (type I; 1750 U/ml), papain (9.5 U/ml), bovine serum albumin (2 mg/ml) and dithiothreitol (1 mM) at 37° C. for 20 minutes. Following digestion, single smooth muscle cells were dispersed by gentle trituration with a wide-bore transfer pipette in Ca^2+-free HBSS and the cell suspension was placed on 25 mm glass cover slips. PASMCs were transiently cultured in Ham's-F-12 media supplemented with 0.5% fetal bovine serum and 1% penicillin/streptomycin for 24-48 hrs. before study.
pHi within PASMCs was monitored using the cell permeant pH sensitive dye 2′,7′-bis(carboxyethyl)-5(6)-carboxyflourescein (BCECF-AM). Cells were incubated with BCECF-AM for 60 min at 37° C. under an atmosphere of 21% O2-5% CO2. Cells were then washed with Kreb's solution for 15 min at 37° C. to remove extracellular dye and allow complete de-esterification of cytosolic dye. Cells were excited with light at 490 and 440 nm and light emitted from the cells was detected at 530 nm. The ratio of 490 to 440 nm emission was calculated and converted into pH values by performing a calibration curve after each experiment. PASMCs were subjected to a high K^+ buffer containing 10 μM nigericin, which allowed the cell to adopt the pH of the high K^+ buffer. Two high K^+/nigericin buffers were used to set pH to 6.5 or 7.5, pHi was estimated from in situ calibration after each experiment. Cells were perfused with a solution containing (in mM): 105 KCl, 1 MgCl2, 1.5 CaCl2, 10 glucose, 20 HEPES-Tris and 0.01 nigericin to allow pHi to equilibrate to external pH as in Quinn D. A., et al., Am J Respir Cell Mol Biol 5: 586-591 (1991), which is hereby incorporated by reference in its entirety. A two point calibration was created from fluorescence measured as pHi was adjusted with KOH from 6.5 to 7.5. Intracellular H^+ ion concentration ([H^+]i) was determined from pHi using the formula: pHi=−log ([H^+]i).

[3] = iv bolus + continuous infusion, hypoxia 2nd h
[4] = iv bolus + continuous infusion, hypoxia 3rd h
[5] = iv bolus + continuous infusion, normoxia 1st h
[6] = po 5 mg/kg 12 and 1 hr before, hypoxia 2nd h
[7] = po 5 mg/kg 12 and 1 hr before, hypoxia 3rd h
[8] = po 5 mg/kg 12 and 1 hr before, normoxia 1st h

Compound | GFR, glomerular filtration rate [1, 3] | PK, plasma potassium concentration [1, 3] | UV, urine volume [1, 3] | GFR, glomerular filtration rate [1, 4] | PK, plasma potassium concentration [1, 4] | UV, urine volume [1, 4] | GFR, glomerular filtration rate [1, 5] | PK, plasma potassium concentration [1, 5] | UV, urine volume [1, 5] | effect on basal pHi ([2]; 100 μM) | basal pHi, Baseline [2] | plasma renin activity during hypoxia ([1]; iv bolus + continuous infusion) | basal pHi, Treatment ([2]; 100 μM) | further results
CC(=O)Nc1nnc(S(N)(=O)=O)s1 [AZ, acetazolamide] | 3.3 ± 0.1 mL/min/kg | 2.8 ± 0.1 mM | 0.161 ± 0.022 mL/min/kg | 3.4 ± 0.2 mL/min/kg | 2.8 ± 0.1 mM | 0.071 ± 0.01 mL/min/kg | 3.4 ± 0.1 mL/min/kg | 3.0 ± 0.1 mM | 0.099 ± 0.013 mL/min/kg | small decrease | 7.26±0.02 |  |  | plasma renin activity ([1]; hypoxia): 5 to 5.6 ng/mL/h; plasma renin activity ([1]; normoxia): 2.9 to 3.2 ng/mL/h; reduction of glomerular filtration rate vs controls ([1]; iv 2 mg/kg + 2 mg/kg/h, non-significant): 12%; GFR, glomerular filtration rate [1, 6]: 3.4 ± 0.3 mL/min/kg; PK, plasma potassium concentration [1, 6]: 2.9 ± 0.1 mM; UKV, urinary potassium concentration [1, 6]: 1.6 ± 0.3 µmol/min/kg; UV, urine volume [1, 6]: 0.083 ± 0.024 mL/min/kg; urinary excretion rate (potassium in 2.2, sodium in 2.3) [1, 6]: 1.6 ± 0.3 µmol/min/kg; GFR, glomerular filtration rate [1, 7]: 3.3 ± 0.2 mL/min/kg; PK, plasma potassium concentration [1, 7]: 2.9 ± 0.1 mM; UKV, urinary potassium concentration [1, 7]: 1.6 ± 0.4 µmol/min/kg; UV, urine volume [1, 7]: 0.048 ± 0.011 mL/min/kg; urinary excretion rate (potassium in 2.2, sodium in 2.3) [1, 7]: 1.3 ± 0.1 µmol/min/kg; GFR, glomerular filtration rate [1, 8]: 3.1 ± 0.2 mL/min/kg; PK, plasma potassium concentration [1, 8]: 2.9 ± 0.1 mM; UV, urine volume [1, 8]: 0.057 ± 0.011 mL/min/kg; effect of hypoxia on pHi in treated cells ([2]; 100 μM, 4% O2): no effect; pHi after hypoxia in pretreated PASMCs ([2]; 100 μM, 4% O2): 7.24±0.03
NS(=O)(=O)c1nnc(NS(=O)(=O)c2ccccc2)s1 [BZ, benzolamide] | 3.0 ± 0.2 mL/min/kg | 2.9 ± 0.1 mM | 0.104 ± 0.023 mL/min/kg | 3.2 ± 0.2 mL/min/kg | 2.8 ± 0.1 mM | 0.065 ± 0.015 mL/min/kg | 2.9 ± 0.2 mL/min/kg | 3.0 ± 0.1 mM | 0.066 ± 0.007 mL/min/kg | significant decrease | 7.31 ± 0.02 | did not change | 7.25 ± 0.03 | 
CCOc1ccc2nc(S(N)(=O)=O)sc2c1 [EZ, ethoxzolamide] | 3.1 ± 0.2 mL/min/kg | 2.8 ± 0.1 mM | 0.072 ± 0.022 mL/min/kg | 3.2 ± 0.2 mL/min/kg | 2.7 ± 0.1 mM | 0.045 ± 0.006 mL/min/kg | 3.2 ± 0.2 mL/min/kg | 3.1 ± 0.1 mM | 0.052 ± 0.009 mL/min/kg | significant decrease | 7.28 ± 0.04 | did not change | 7.19 ± 0.04 | 
